This note sets out measurements from publication PMC4143111, “Photoswitchable precision glycooligomers and their lectin binding” (Beilstein Journal of Organic Chemistry, 2014).

The target in data set [1] is T1, PA-IL (Pseudomonas aeruginosa, UniProt Q05097). Description: SPR inhibition/competition assay of PA-IL binding to β-D-galactose-polymer chip. As to the method:
In order to determine the binding affinity of the precision glycooligomers to PA-IL, surface plasmon resonance (SPR) experiments were performed. At first, an inhibition/competition assay was carried out. The SPR chip was modified with a β-D-galactose-polymer and α-D-mannose-polymer as negative control (see Supporting Information File 1). In a first experiment, binding of PA-IL (1 µM) to the chip was determined and set as 100%. In a second set of experiments, binding of preincubated mixtures of PA-IL (1 µM) and glycooligomers at serial dilutions (400 µM to 0.1 µM) were measured. […] Plotting this concentration dependent decrease in binding against […], sigmoidal curves were obtained and fitted with the Hill equation. The inhibitory concentration at 50% binding (IC50) was derived for the different glycooligomers (Table 2).
SPR PA-IL inhibition/competition studies:
A sensor chip SA coated with streptavidin was conditioned with three consecutive injections of 100 µl 1 M NaCl and 50 mM NaOH in a flow rate of 100 µL/min. Then, biotinylated β-D-galactose-PAA (0.1 nM in HBS-EP buffer) was immobilized on flow cell 2 with HBS-EP buffer in a flow rate of 5 µL/min.
Biotinylated α-D-mannose-PAA with the same concentration was immobilized as reference on flow cell 1. Binding analyses were carried out with running buffer (HEPES 10 mM, NaCl 150 mM, CaCl2 10 mM, pH 7.4.) at a flow rate of 20 µl/min. The PA-IL binding of the glycooligomers AZO-Gal(1,3)-3, AZO-Gal(1,3,5)-5, EDS-Gal(1,3)-3, EDS-Gal(1,3,5)-5 and AZO-Man(1,3,5)-5 (as control) was examined.
1 µM Pa-IL was incubated with the specific substance at final concentrations of 400 µM, 100 µM, 50 µM, 25 µM, 10 µM, 1 µM and 0.1 µM, in running buffer for 60 minutes at room temperature.
45 µL of each sample were injected over both lanes whereas the binding signal on the reference cell (α-D-mannose-PAA) was subtracted from the β-D-galactose-PAA flow cell during the binding measurement. Each binding cycle consisted of an injection phase for 80 s followed by a 100 s dissociation phase. The chip was regenerated after each run with 100 mM D-galactose in running buffer. The response values were calculated by subtraction of the report point at the beginning of the sample injections (0 s) from the report point at the end of the dissociation phase ([…]). The binding signal obtained by the 1 µM Pa-IL solution in running buffer without inhibitor was set to 100 % binding. This sample was measured 2 times before and 2 times after each measuring cycle. The binding signals of the specific inhibitor was referred to Pa-IL and calculated for relative PA-Il binding in % of PA-IL. Each data point (concentration) represents the mean value (± SEM) of two measurements. The obtained data points for each concentration were plotted with Origin 8.5G and fit with Hill1 equation, allowing for the determination of IC50 values (the concentration of inhibitor that results from 50 % binding of PA-IL binding to β-D-galactose-PAA on the sensor chip).
The characteristic sigmoidal shape (see Figure S4) was fitted with the Hill equation to obtain the IC50 […]
where Start is the value at 100% binding and equals 100, End is the value where no binding is observed anymore and equals 0, x corresponds to the concentration and n describes the cooperativity. IC50 values describe the inhibitory potential of a ligand for a specific receptor which is no direct measure for the affinity of a ligand but can be related to the affinity of the ligand in a competitive experiment e.g. as we have performed with PA-IL and against β-D-galactose.

Data set [2] is described as follows: Photoisomerization, composition at photostationary state by UPLC. Format: physicochemical. The note with it: irradiation at 360 nm. As to the method:
The photochromic behavior of the newly synthesized AZO-glycooligomers was investigated by UV–vis absorption spectroscopy and ultraperformance liquid chromatography (UPLC). Aqueous solutions of Azo-Gal(1,3)-3 and Azo-Gal(1,3,5)-5 (the compounds were dissolved in the buffer used for the SPR measurements, see Supporting Information File 1 for the details) were irradiated at λ = 360 nm to induce the E → Z isomerization. […] The composition at the photostationary state (PSS) was analyzed by UPLC using integration of the UV signal at the wavelengths of the isosbestic points.

For data set [3], the target named is T1, PA-IL. As to the kind of experiment: SPR direct binding assay, glycooligomers immobilized on chip, PA-IL flown over. Conditions: steady-state affinity model. An excerpt: In order to approach practical applications of a photoswitchable device that could modulate its binding affinity towards PA-IL lectins on demand, we were intrigued in the ability of our light-responsive systems to work when immobilized on a surface. To this end we attached the photoswitchable precision glycooligomers directly to the SPR chip and performed a second set of lectin binding experiments using SPR and measuring PA-IL binding on the chip. The glycooligomers were covalently linked to the chip via their terminal amine group and the simultaneous activation of the carboxyl-functionalized chip surface as N-hydroxysuccinimide (NHS) ester (see Supporting Information File 1). Successful functionalization was monitored by SPR. Photoswitching of the glycooligomers was realized either ex situ prior to surface functionalization or in situ by direct irradiation of the functionalized chip. The equilibrium constant KD was obtained by fitting the obtained binding values at the turning point between binding- and dissociation-curve with a steady-state affinity model (Biacore T100 Evaluation Software 2.0.3). In agreement with the previously determined IC50 values, all KD values are in the µM range.
Figure S5: Inhibition curves of controls, Azo-Man(1,3,5)-5 and β-methyl galactose.
SPR PA-IL direct binding studies
For direct binding studies, glycooligomers E-Azo-Gal(1,3)-3, E-Azo-Gal(1,3,5)-5, Azo-Gal(1,3)-3-PSS and Azo-Gal(1,3,5)-5-PSS were immobilized on Biacore CM5 sensor chips. Two PSS were additionally generated by irradiation of the corresponding E structure immobilized on the Biacore sensor chip with light at 360 nm (see irradiation section above for details). Immobilizations were performed by flowing a solution of 2 mM glycoligand for 5 minutes with 10 µL per minute over one flow cell, after activation of it with 0.4 M […] in water and 0.1 M NHS in water. Remaining active ester groups were capped by injection of 1 M ethanolamine. HBS-P (0.01 M HEPES pH 7.4, 0.15 M NaCl, 0.005% v/v Surfactant P20 in water) was used as running buffer. A second flow cell was immobilized as blank reference cell, by flowing 1 M ethanolamine over the cell after activation with 0.4 M EDS in water and 0.1 M NHS in water. Serial dilutions of PA-IL (25 µM, 10 µM, 5 µM, 1 µM, 0.1 µM and 0 µM) were then flown over the sensor chip at 25 °C with Hepes running buffer (HEPES 10 mM, NaCl 150 mM, CaCl2 10 mM, pH 7.4.). Binding of lectin was evaluated with Biacore T100 evaluation software, determining KD affinity constants by employing a steady state affinity model.
(1 picture or pasted object on this page, not shown here)

Where [4] appears, read: no isomer state given (control structures), PA-IL 1 µM.

T1 sequence (Q05097 whole entry): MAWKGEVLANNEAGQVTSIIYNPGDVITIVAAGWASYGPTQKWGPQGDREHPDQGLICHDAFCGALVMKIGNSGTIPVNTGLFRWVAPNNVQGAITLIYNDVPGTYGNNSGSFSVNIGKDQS

The IC50 is the midpoint of a concentration-inhibition curve. The low end stands for inhibition by little substance, the high end for a need for much substance. In the case of `CC(=O)NCCN(CCNC(=O)CCC(=O)NCCOCCOCCNC(=O)CCC(=O)NCCN(CCNC(=O)CCC(=O)NCCN)C(=O)CCc1cn(CCO[C@@H]2O[C@H](CO)[C@H](O)[C@H](O)[C@H]2O)nn1)C(=O)CCc1cn(CCO[C@@H]2O[C@H](CO)[C@H](O)[C@H](O)[C@H]2O)nn1` [EDS-Gal(1,3)-3], the IC50 on PA-IL [1] (IC50, no isomer state given (control structures), PA-IL 1 µM) was found to be 3.2 ± 0.2 µM.

A word on the Kd: it is the concentration at which binding is half-saturated. A high value points to lower affinity. For the molecule `CC(=O)NCCN(CCNC(=O)CCC(=O)NCc1ccc(/N=N/c2ccc(C(=O)NCCN(CCNC(=O)CCC(=O)NCCN)C(=O)CCc3cn(CCO[C@@H]4O[C@H](CO)[C@H](O)[C@H](O)[C@H]4O)nn3)cc2)cc1)C(=O)CCc1cn(CCO[C@@H]2O[C@H](CO)[C@H](O)[C@H](O)[C@H]2O)nn1` [AZO-Gal(1,3)-3], the IC50 stood at 5.7 ± 1.7 µM on PA-IL [1] (IC50, E-isomer, PA-IL 1 µM preincubated with glycooligomer 400 µM to 0.1 µM) and 9.4 ± 0.1 µM at PA-IL [1] (IC50, PSS: photostationary state @ 360 nm, PA-IL 1 µM preincubated with glycooligomer 400 µM to 0.1 µM). Moreover, the “Z-azobenzene in the PSS solution” value in data set [2] (buffer solution) is recorded as 78%. For the same molecule, the Kd on PA-IL [3] (KD, E-form immobilized on chip, 25 °C) was 1.7 ± 0.1 µM; at PA-IL [3] (KD, PSS @ 360 nm, ex situ irradiation before immobilization), 2.4 ± 0.1 µM; on PA-IL [3] (KD, PSS @ 360 nm, irradiation on chip) it was 1.8 ± 0.1 µM.

With `CC(=O)NCCN(CCNC(=O)CCC(=O)NCCOCCOCCNC(=O)CCC(=O)NCCN(CCNC(=O)CCC(=O)NCCOCCOCCNC(=O)CCC(=O)NCCN(CCNC(=O)CCC(=O)NCCN)C(=O)CCc1cn(CCO[C@@H]2O[C@H](CO)[C@H](O)[C@H](O)[C@H]2O)nn1)C(=O)CCc1cn(CCO[C@@H]2O[C@H](CO)[C@H](O)[C@H](O)[C@H]2O)nn1)C(=O)CCc1cn(CCO[C@@H]2O[C@H](CO)[C@H](O)[C@H](O)[C@H]2O)nn1` [EDS-Gal(1,3,5)-5], the IC50 on PA-IL [1] (setting [4]) is 2 ± 0.6 µM.

`CC(=O)NCCN(CCNC(=O)CCC(=O)NCc1ccc(/N=N/c2ccc(C(=O)NCCN(CCNC(=O)CCC(=O)NCc3ccc(/N=N/c4ccc(C(=O)NCCN(CCNC(=O)CCC(=O)NCCN)C(=O)CCc5cn(CCO[C@@H]6O[C@H](CO)[C@H](O)[C@H](O)[C@H]6O)nn5)cc4)cc3)C(=O)CCc3cn(CCO[C@@H]4O[C@H](CO)[C@H](O)[C@H](O)[C@H]4O)nn3)cc2)cc1)C(=O)CCc1cn(CCO[C@@H]2O[C@H](CO)[C@H](O)[C@H](O)[C@H]2O)nn1` [AZO-Gal(1,3,5)-5]: the IC50 on PA-IL [1] (E-isomer, PA-IL 1 µM preincubated with glycooligomer 400 µM to 0.1 µM) is 3.4 ± 0.4 µM; at PA-IL [1] (PSS: photostationary state @ 360 nm, PA-IL 1 µM preincubated with glycooligomer 400 µM to 0.1 µM) it was 4.1 ± 1.3 µM. The “E,E-isomer that did not isomerize at PSS” value in data set [2] (UPLC) is reported as 10%. Also, in data set [2] (UPLC), the “E,Z isomer at PSS” value is listed as 10%. In addition, the “Z,E isomer at PSS” value in data set [2] (UPLC) is recorded as 10%. Besides, in data set [2] (UPLC), the “Z,Z-isomer at PSS” value came to 70%. In addition, the “total amount of Z-azobenzenes in the PSS mixture” value in data set [2] (buffer solution, from isomer composition) was 80%. Moreover, the Kd on PA-IL [3] (E-form immobilized on chip, 25 °C) stood at 3.3 ± 0.3 µM; at PA-IL [3] (PSS @ 360 nm, ex situ irradiation before immobilization), 7.4 ± 0.9 µM; on PA-IL [3] (PSS @ 360 nm, irradiation on chip) it was 3.2 ± 0.9 µM.

`CC(=O)NCCN(CCNC(=O)CCC(=O)NCc1ccc(/N=N/c2ccc(C(=O)NCCN(CCNC(=O)CCC(=O)NCc3ccc(/N=N/c4ccc(C(=O)NCCN(CCNC(=O)CCC(=O)NCCN)C(=O)CCc5cn(CCO[C@H]6O[C@H](CO)[C@@H](O)[C@H](O)[C@@H]6O)nn5)cc4)cc3)C(=O)CCc3cn(CCO[C@H]4O[C@H](CO)[C@@H](O)[C@H](O)[C@@H]4O)nn3)cc2)cc1)C(=O)CCc1cn(CCO[C@H]2O[C@H](CO)[C@@H](O)[C@H](O)[C@@H]2O)nn1` [AZO-Man(1,3,5)-5]: the “binding to PA-IL (in words)” value on PA-IL [1] (SPR inhibition/competition assay) was “does not show any binding”. The IC50 result on PA-IL [1] (setting [4]) is reported as “n.b.^b”.
